The test system of assay [1] is β-lactamase. The assay is described as follows: β-lactamase cleavage of CCF2 in phosphate buffer, emission spectrum. The format is biochemical. Conditions: 50 mmolar phosphate buffer pH 7.0, excitation 405 nm. An excerpt:
The emission spectrum of compound CCF2 in 50 mmolar phosphate buffer pH 7.0 before and after β-lactamase cleavage of the β-lactam ring. In the intact substrate, efficient energy transfer occurs from the 7-hydroxycoumarin moiety to the fluorescein moiety. Excitation of the substrate at 405 nm results in fluorescence emission at 515 nm (green) from the acceptor dye fluorescein. The energy transfer is disrupted when β-lactamase cleaves the β-lactam ring, thereby severing the link between the two dyes. Excitation of the products at 405 nm now results entirely in donor fluorescence emission at 448 nm (blue). The fluorescence emission from the donor moiety increases 25 fold upon β-lactam cleavage. The fluorescence at 515 nm is reduced by 3.5-fold, all of the remaining fluorescence originating from the 7-hydroxycoumarin as its emission spectrum extends into the green. Twenty-five-fold quenching of the donor in the substrate is equivalent to an efficiency of fluorescence energy transfer of 96%. This large fluorescence change upon β-lactam cleavage can readily be used to detect β-lactamase in the cytoplasm of living mammalian cells.

Assay [2] concerns the target T1, RTEM β-lactamase (Escherichia coli, UniProt P62593). The assay is described as follows: Pixel intensities of CCF2 loaded CHO cells transiently transfected with RTEM β-lactamase gene. The format is cell-based. On the set-up: expressed in transfected cells; host or cells: CHO, transiently transfected. Conditions: for pixel intensity, coumarin emission filter: 450 DF 65 filter.
Experimental: (§1) Cells from cell lines of various mammalian origin were transiently transfected with a plasmid containing the RTEM β-lactamase gene under the control of a mammalian promoter. […] D. 1.10 to 48 hours after transfection cells were exposed to 5 micromolar CCF2/ac2AM2 for 1 to 6 hours. […] To quantitate the fluorescence measurements the cells were first viewed through coumarin (450 DF 65) and then fluorescein (515 EFLP) emission filters and pictures were recorded with a charge couple device camera. The average pixel intensities of CCF2 loaded transfected cells (blue) and controls (green) at coumarin and fluorescein wavelength in COS-7 (Table 2) and CHO (Table 3) cells are summarized; values for 4 representative cells for each population are given.

The target in assay [3] is T1, RTEM β-lactamase. The assay is described as follows: Pixel intensities of CCF2 loaded COS-7 cells transiently transfected with RTEM β-lactamase gene. The format is cell-based. The arrangement: expressed in transfected cells; host or cells: COS-7, transiently transfected. Conditions: for pixel intensity, coumarin emission filter: 450 DF 65 filter.
Experimental: as §1
Assay [4] has as its system NFAT promoter. In words: NFAT promoter β-lactamase reporter gene assay in Jurkat T lymphocytes. Format: cell-based. The text has this: These examples employ Jurkat T lymphocytes that were transfected with a genetic construct that expresses a reporter gene. The genetic construct includes a NFAT promoter, which is responsive to increased calcium levels and protein kinase C activation that result from activation of Gα protein. The NFAT promoter was operably linked to a β-lactamase reporter gene. To detect expression of the reporter gene, and thereby detect activation of Gα, the cells were contacted with the β-lactamase substrate CCF2ac2/AM2 (described herein), and fluorescence emission was detected according to previously described methods (Tsien et al., 1993, Trends in Cell Biology 3:242-245).
Two different compounds, ionomycin and phorbol myristate acetate (PMA), were used to optimize detection of expression of the reporter gene in these examples. In the first example, the dose response to ionomycin was measured. In this example, a set of samples of cells were contacted with PMA (at 3 nM) and the calcium ionophore ionomycin (at various concentrations, ranging from 0 to 3.0 μM). […]
In practicing these methods, it is preferable to add the ionophore to a level that is just below the threshold level for activation of the calcium-responsive promoter (e.g., the NFAT promoter). […] As is illustrated in FIG. 4A, fluorescence emission from a sample of the aforementioned cells can be measured by FRET. In this example, fluorescence emission was measured approximately 90 minutes after stimulation. Because the fluorogenic β-lactamase substrate undergoes a shift in fluorescence emission, fluorescence emission is measured as an emission ratio (450/530) when exciting at 400 nm. […]
In a second example, the dose response of PMA required to stimulate NFAT-driven expression was measured. […] As above, fluorescence emission was measured 90 minutes after stimulation. […]
A general note: In a reporter assay the amount or activity of a reporter protein is the signal.

The test system of assay [5] is Gα15 or Gα16 expression. In words: Doxycyclin-inducible expression of Gα15 or Gα16 in COS-7 cells, Western blot. The format is cell-based. As to conditions: COS-7 clones, tet operator/CMV promoter; doxycyclin 3 g/ml. The text has this: The data summarized herein indicate that, although cells may not tolerate constitutive expression of promiscuous Gα proteins at high levels, they can tolerate expression of promiscuous Gα proteins from an inducible promoter. In this case, the genes for Gα15 and Gα16 were placed under the control of a cytomegalovirus (CMV) promoter that was operably linked to a heptamerized tet operator (Gossen and Bujard, 1992, Proc. Natl. Acad. Sci. 89:5547-5551). The plasmid encoding Gα and; the plasmid encoding Gα16 are identical, except sequences encoding Gα16 in lieu of Gα15. These plasmids were used to transfect COS-7 cells. These cells were co-transfected with a tetracyclin-dependent transactivator, rtTA, that is operably linked to a CMV promoter of a plasmid that carries a neomycin resistance gene (Gossen et al., 1995, Science 268:1766-1769).
Expression of the Gα genes was induced by contacting the cells with doxycyclin, a tetracyclin analog. In these experiments, the doxycyclin concentration was […], although doxycyclin concentrations ranging from […] can be used in order to regulate the level of gene expression. […] FIG. 3 illustrates that, in the presence of doxycyclin, expression of Gα15 or Gα16 is detectable as a band of approximately 43 kDa. […]
On the technique in general: Immunoblotting shows a protein as a band on a membrane.

Several values for one entry are separate records, joined by “and”; a condition that tells them apart may be missing. Equal entries are not always repeated.

T1 sequence (P62593 24-286 limits assumed): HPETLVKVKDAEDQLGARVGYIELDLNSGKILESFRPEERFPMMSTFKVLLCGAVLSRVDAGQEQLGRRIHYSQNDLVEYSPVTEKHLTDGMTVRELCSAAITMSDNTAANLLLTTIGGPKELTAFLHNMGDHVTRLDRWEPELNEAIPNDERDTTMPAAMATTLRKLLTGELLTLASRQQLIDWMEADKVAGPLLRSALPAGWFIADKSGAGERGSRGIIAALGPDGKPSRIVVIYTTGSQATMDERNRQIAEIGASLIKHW

For the compound `O=C(CNC(=O)c1cc2cc(Cl)c(O)cc2oc1=O)N[C@@H]1C(=O)N2C(C(=O)O)=C(CSc3ccc4c(c3)C(=O)OC43c4ccc(O)cc4Oc4cc(O)ccc43)CS[C@H]12` [CCF2], the “reduction of fluorescence at 515 nm upon β-lactam cleavage” value in assay [1] came to 3.5 fold. Moreover, the “increase of fluorescence emission from the donor moiety upon β-lactam cleavage” value in assay [1] (emission 448 nm) amounted to 25 fold. Also, the “pixel intensity, coumarin emission filter” value in assay [2] (blue cell (transfected)) was 98 and 70 and 76 and 56; in assay [2] (green cell (control)) it was 9 and 7; in assay [3] (COS-7, blue cell (transfected)) it was 22 and 27 and 34 and 31; in assay [3] (COS-7, green cell (control)) it was 4 and 5 and 3. For the same compound, the “pixel intensity, Fluorescein emission filter” value in assay [2] (blue cell (transfected), 515 EFLP filter) is 112 and 113 and 92 and 67; in assay [3] (COS-7, blue cell (transfected), 515 EFLP filter), 33 and 20 and 23 and 31.

On to `CCCCCCCCCCCCCC(=O)O[C@@H]1[C@@H](C)[C@@]2(O)[C@@H](C=C(CO)C[C@]3(O)C(=O)C(C)=C[C@@H]23)[C@@H]2C(C)(C)[C@]12OC(C)=O` [PMA, phorbol myristate acetate], for which the “effect on fluorescence emission from the cell sample” value in assay [4] (0 to 30 nM with 1 μM ionomycin, 90 minutes after stimulation) is listed as “increased fluorescence emission”. For the same compound, the “concentration preferable for enhancing detection of expression of a reporter gene” value in assay [4] (with 1 μM ionomycin, 90 minutes after stimulation) was “approximately 3 nM”.

Consider `C[C@H]1c2cccc(O)c2C(O)=C2C(=O)[C@]3(O)C(O)=C(C(N)=O)C(=O)[C@@H](N(C)C)[C@@H]3[C@@H](O)[C@@H]21` [doxycyclin], for which, in assay [5], the “Gα proteins produced upon induction of gene expression” value is on record as “Up to 10,000 Gα proteins/cell”.

With `C[C@H](CCC(=O)O)C[C@H](C)C[C@H](C)C(=O)/C=C(\O)[C@H](C)C[C@H](C)C/C=C/[C@@H](C)[C@@H](O)[C@@H](C)[C@@H](O)C[C@@H]1CC[C@@](C)([C@H]2CC[C@@](C)([C@@H](C)O)O2)O1` [ionomycin], in assay [4] (with PMA at 3 nM, emission ratio 450/530, about 90 minutes after stimulation), the “concentration raising intracellular calcium to just below the threshold level for activation of the calcium-responsive promoter” value is given as “approximately 0.3 μM”.

(Values after patent US20060008855A1, “Promiscuous G-protein compositions and their use” (Invitrogen Corporation, a Delaware corporation, priority 1996, published 2006).)
